Assay results: PubChem BioAssay (NCI)
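Step 1: Grow cells in 96-well plates. Step 2: Expose to compound for 48 hours at 5 concentrations. Step 3: Interpolate endpoints linearly; if unreached, use highest concentration. Abbreviation: GI50, concentration required for 50% inhibition of growth. TGI: total growth inhibition.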

Key:
Assay in all cases: NCI-60 cell line screen, 48 h
786-0 renal = tested on: 786-0 renal
HOP-62 NSCLC = tested on: HOP-62 NSCLC
NCI-H23 lung = tested on: NCI-H23 lung
LOX IMVI melanoma = tested on: LOX IMVI melanoma
SF-539 CNS = tested on: SF-539 CNS
UACC-62 melanoma = tested on: UACC-62 melanoma
HCC-2998 colon = tested on: HCC-2998 colon
HT29 colon = tested on: HT29 colon
KM12 colon = tested on: KM12 colon
HCT-15 colon = tested on: HCT-15 colon

| Compound | GI50 (786-0 renal) [µM] | TGI (786-0 renal) [µM] | GI50 (HOP-62 NSCLC) [µM] | TGI (HOP-62 NSCLC) [µM] | GI50 (NCI-H23 lung) [µM] | TGI (NCI-H23 lung) [µM] | GI50 (LOX IMVI melanoma) [µM] | TGI (LOX IMVI melanoma) [µM] | GI50 (SF-539 CNS) [µM] | TGI (SF-539 CNS) [µM] | GI50 (UACC-62 melanoma) [µM] | TGI (UACC-62 melanoma) [µM] | GI50 (HCC-2998 colon) [µM] | TGI (HCC-2998 colon) [µM] | GI50 (HT29 colon) [µM] | TGI (HT29 colon) [µM] | GI50 (KM12 colon) [µM] | TGI (KM12 colon) [µM] | GI50 (HCT-15 colon) [µM] | TGI (HCT-15 colon) [µM] |
| --- | --- | --- | --- | --- | --- | --- | --- | --- | --- | --- | --- | --- | --- | --- | --- | --- | --- | --- | --- | --- |
| CCOc1ccccc1CCN=C1NC(=O)/C(=C/c2ccc3ncccc3c2)S1 | 1.93 | > 14.3 | 1.44 | > 17.6 | 2.1 | > 25 | 1.16 | 7.9 | 0.751 | 2.95 | 1.48 | 10.3 | 3.05 | 11.8 | 0.783 | 3.16 | 0.725 | 10.1 | 0.777 | > 25 |
| CCOC(=O)NC(=O)c1cn(CCN2CCN(C(=O)NCCCCCCNC(=O)N3CCN(CCn4cc(C(=O)NC(=O)OCC)c(=O)[nH]c4=O)CC3)CC2)c(=O)[nH]c1=O | – | > 100 | – | > 100 | – | > 100 | – | > 100 | – | > 100 | – | > 100 | – | > 100 | – | > 100 | – | > 100 | – | > 100 |
| COc1cc(/C=C/C(=O)/C=C/c2cc(OC)c3c(c2)OCO3)cc2c1OCO2 | 9.63 | > 100 | 4.46 | > 100 | 7.69 | > 100 | 1.89 | 4.35 | 22.6 | > 100 | 16.3 | > 100 | 1.98 | 3.73 | 2.64 | 6.7 | 1.98 | 4.07 | 4.42 | > 100 |
| CC1=C([Se]CC(OC(=O)CC[Se]c2ccccc2)C(=O)NC(C)(C)C)C(=O)c2ccccc2C1=O (stereo not drawn) | 1.83 | 3.23 | 0.357 | 1.7 | 1.56 | 3.11 | 1.94 | 4.7 | 1.75 | 3.15 | 1.48 | 2.83 | 1.76 | 3.2 | 1.96 | 3.64 | 1.59 | 3.2 | 2.47 | 5.86 |
| COC(=O)/C(=N\NC(C)(C)C)C(C(=O)OC)C(=O)C(=O)Nc1cc(Cl)ccc1Cl (stereo not drawn) | – | > 100 | – | > 100 | – | > 100 | – | > 100 | – | > 100 | – | > 100 | – | > 100 | – | > 100 | – | > 100 | – | > 100 |
| Cc1c2cnccc2c(C)c2c1c1cc(C#N)ccc1n2C | 0.235 | 1.3 | 0.115 | 1.42 | 0.172 | 0.649 | 0.115 | 0.615 | 0.254 | 1.14 | 0.148 | 0.343 | 0.293 | 1.55 | 0.0871 | 1.05 | 0.243 | 1.98 | 0.0966 | 0.85 |
| C=C(c1ccccc1)C1(O)CCCCC1N (stereo not drawn) | – | > 100 | – | > 100 | – | > 100 | – | > 100 | – | > 100 | – | > 100 | – | > 100 | – | > 100 | – | > 100 | – | > 100 |
| Cc1nc(C(N)=O)c(N)n1CCN1CCN(C(=O)CCCCCCCCCCNC2N=CNc3nc[nH]c32)CC1 (stereo not drawn) | – | > 100 | – | > 100 | – | > 100 | – | > 100 | – | > 100 | – | > 100 | – | > 100 | – | > 100 | – | > 100 | – | > 100 |
| Nc1ncnc2c1ncn2C1OC(CSCC(F)(F)F)C(O)C1O (stereo not drawn) | – | > 100 | – | > 100 | – | > 100 | – | > 100 | – | > 100 | – | > 100 | – | > 100 | – | > 100 | – | > 100 | – | > 100 |
| CCSC1=NC2C(N(CC)C(=O)N2CC)N1/N=C/C=C/c1ccccc1[N+](=O)[O-] (stereo not drawn) | 0.405 | > 100 | 0.313 | > 100 | 0.351 | > 100 | 0.126 | > 100 | 0.0804 | 0.736 | 0.0604 | > 100 | 0.362 | 39.6 | 0.16 | > 100 | 0.0887 | > 37.7 | 0.204 | > 100 |
| COc1ccc(C2=Nn3c(nnc3-c3cc(Cl)cc(Cl)c3Cl)SC2)cc1 | 0.411 | – | 0.478 | > 36.2 | 0.701 | > 100 | 0.568 | > 100 | 0.225 | 0.741 | 0.436 | > 100 | 1.21 | 5.41 | 0.336 | – | 0.384 | 8.89 | 0.52 | > 100 |
| FC(F)(F)c1cccc(-c2nc3nc(Cl)c(Cl)nc3[nH]2)c1 | – | > 65.7 | – | 23.5 | – | 14.7 | – | 13.1 | – | > 27.7 | – | 24.5 | – | 8.04 | – | 9.2 | – | 11 | – | > 38.6 |
| CN1N=CSC12C(=O)N(c1ccccc1)C(=O)N2c1ccccc1 (stereo not drawn) | – | > 100 | – | > 100 | – | > 100 | – | > 100 | – | > 100 | – | > 100 | – | > 100 | – | > 100 | – | > 100 | – | > 100 |
| CN(C)CCNC(=O)Cn1ccc(=O)c2cc([N+](=O)[O-])ccc21 | – | > 100 | – | > 100 | – | > 100 | – | > 100 | – | > 100 | – | > 100 | – | > 100 | – | > 100 | – | > 100 | – | > 100 |
| COc1cc(Cl)cc(=O)c(O)c1OC | – | > 100 | – | > 100 | – | > 100 | – | > 100 | – | > 100 | – | 70.7 | – | > 100 | – | > 100 | – | > 100 | – | > 100 |
| O=C(Nc1cccc(Cl)c1)Nn1cnnc1 | > 50 | > 100 | > 50 | > 100 | > 50 | > 100 | > 50 | > 50 | > 50 | > 100 | > 50 | > 100 | > 50 | > 100 | > 50 | > 100 | > 50 | > 100 | > 50 | > 100 |
